Measurements as given in patent publication US8552035B2, “Phenanthrenone compounds, compositions and methods” (Pfizer Inc., priority 2008, dated 2013).

What was measured:
[1] = system: IFNγ; assay: LPS-induced human whole blood, IFNγ release; assay type: cell-based; conditions: for inhibition at 0.00137174 µM: 1.371742 nM; for inhibition at 0.00411523 µM: 4.115226 nM; for inhibition at 0.0123457 µM: 12.34568 nM; for inhibition at 0.037037 µM: 37.03704 nM; for inhibition at 0.111111 µM: 111.1111 nM; for inhibition at 0.333333 µM: 333.3333 nM; for inhibition at 1 µM: 1000 nM
Procedure: (§1) Venous blood from human donors was collected as 10 ml aliquots in tubes containing sodium heparin (BD Vacutainer from Becton Dickinson and Company, Franklin Lakes, N.Y.). Blood was added to sterile polystyrene round bottom 96-well tissue culture plates (Corning Costar) at 180 Blood was placed in a humidified 37 C incubator with 5% CO2 while compounds were prepared (nearly 60 minutes).
(§2) Compounds were prepared from 10 mM stock solutions in dimethylsulfoxide (DMSO, Sigma-Aldrich). Stock compound was diluted in DMSO to give appropriate starting concentration then diluted serially 1/3 in DMSO (i.e. 15 μl compound+30 μl DMSO), followed by diluting each serial dilution 1/167 into vehicle solution (2% DMSO in phosphate buffered saline (Dulbecco's Phosphate Buffered Saline without calcium chloride without magnesium chloride, Invitrogen Corporation, Carlsbad Calif.)). Compound or vehicle was added to blood in 10 μl aliquots as triplicates, omitting the outside wells to minimize possible edge effects. The final highest concentration of each compound in the assay ranged from 3 to 0.3 μM. Final DMSO concentration in the assay was 0.1%. The plate containing the samples was gently vortexed to mix and replaced in the incubator. LPS stock (E. coli serotype 0111:B4, Sigma-Aldrich), stored in aliquots of 100 μg/ml in RPMI at −20° C., was diluted […] in RPMI to make a working stock solution. After 60 minutes of incubation, 10 μl of the prepared LPS working stock was added to the blood to a final concentration of 100 ng/ml. Wells to be used as negative control received RPMI media with no LPS. The plate was again gently vortexed and the plates incubated overnight for 22 hours. Following incubation, the blood was centrifuged at 1500×g for 5 minutes and the plasma removed to either freeze at −20° C. or assay for cytokine release.
(§3) IL-1β, IFNγ and TNFα protein levels were measured using Meso Scale assay kits (Meso Scale Discovery, Gaithersburg, Md., U.S.A.). Reagents were allowed to come to room temperature. Meso Scale plates were blocked with 150 μl of Meso Scale Block B diluent, gently shaking at room temperature for 60 minutes. Plates were washed 3× with wash buffer (PBS, Invitrogen Corporation, with 0.05% Tween-20, Sigma-Aldrich). Calibrators for standard curves were prepared in human plasma/serum assay diluent as a 1/5 serial dilution to achieve final concentrations ranging from 50000 pg/ml to 3.2 pg/ml. Samples were added at 10 to 20 μl/well and calibrators were added at 20 μl/well then incubated at room temperature with gentle shaking for 2 hours. Plates were again washed 3× with wash buffer. Detection antibody was diluted in human plasma/serum antibody diluent to 1 μg/ml and added to the plate at 20 μl/well. Plates were incubated as before for 2 hours and washed again. Read Buffer T (4×) was diluted 1:1 with mqH20 to 2× concentration and 150 μl added to each well. Plates were read on the SECTOR Imager 6000 (Meso Scale Discovery) to generate raw signal values.
(§4) Individual sample signal values were compared to positive and negative controls (vehicle treated blood with LPS and vehicle treated blood without LPS, respectively) to generate % inhibition. Triplicate values were averaged for each donor. The values for three or four donors were averaged and graphed using 4-parameter fit curves in the LabStats plug-in for the Microsoft Excel application.

[2] = system: IL-1β; assay: LPS-induced human whole blood, IL-1β release; assay type: cell-based; conditions: for inhibition at 0.00137174 µM: 1.371742 nM; for inhibition at 0.00411523 µM: 4.115226 nM; for inhibition at 0.0123457 µM: 12.34568 nM; for inhibition at 0.037037 µM: 37.03704 nM; for inhibition at 0.111111 µM: 111.1111 nM; for inhibition at 0.333333 µM: 333.3333 nM; for inhibition at 1 µM: 1000 nM
Procedure: as §1, §2, §3, §4

[3] = system: TNFα; assay: LPS-induced human whole blood, TNFα release; assay type: cell-based; conditions: for inhibition at 0.00137174 µM: 1.371742 nM; for inhibition at 0.00411523 µM: 4.115226 nM; for inhibition at 0.0123457 µM: 12.34568 nM; for inhibition at 0.037037 µM: 37.03704 nM; for inhibition at 0.111111 µM: 111.1111 nM; for inhibition at 0.333333 µM: 333.3333 nM; for inhibition at 1 µM: 1000 nM
Procedure: as §1, §2, §3, §4

[4] = system: serum insulin; assay: 28-day mouse side-effect model, serum insulin; assay type: in vivo; conditions: oral gavage 28 days
Procedure: (§5) 10-12 week old female Swiss Webster mice (Taconic, Germantown, N.Y., U.S.A.) weighing 27-29 grams are used in accordance with the guidelines of the Institutional Animal Care and Use Committee and in accordance with NIH guidelines on laboratory animal welfare. Mice are acclimated to the Pfizer animal facility for 3-7 days prior to being placed on study. Prednisolone and DAGR compounds are administered by oral gavage for a total of 28 days. Each treatment group generally contains 8-10 mice. To establish a dosing regimen for the studies, a pilot pharmacodynamic time course experiment is conducted to quantify TNFa repression after a single ED80 dose (determined from the acute LPS endotoxemia mouse model). […] DAGR compounds vary in their required frequency of doses.
(§6) Body weights are measured on the first and last day of each experiment. Blood samples are obtained after ˜3 weeks of dosing for steady-state pharmacokinetic analysis. To assess compound effects on LPS-induced TNF-a, all mice receive an intraperitoneal injection of LPS (Salmonella Typhosa, Sigma, St. Louis, L-7895) 2.5 hr after the last dose on day 28. Mice are sacrificed 90 min. after LPS administration. Serum samples are assayed for osteocalcin and TNFa using the Linco multiplex assay (St. Charles, Mo.) and Luminex 100 (Austin, Tex.). Samples are diluted 1:20 and the assay is run according to manufacturer's instructions. An osteocalcin standard is purchased separately from Biomedical Technologies Incorporated (Stoughton, Mass.). Serum insulin is measured to assess compound effects on insulin resistance. Insulin was measured using the UltraSensitive Mouse EIA kit from Alpco Diagnostics (Salem, N.H.) following the manufacturer's protocol.
(§7) ED50 and ED80 values are obtained for the various parameters using four-parameter logistic fits of data. For each experiment/dose group, outliers are detected by calculating the number of standard deviations each mouse's value was from the mean of their group and then dividing by the standard deviation of the group. The means and standard deviations used in this calculation omitted the value being examined so that, if it were an outlier, it would have no influence. If the value being examined is more than 2.5 standard deviations from the mean, it was not used in the rest of the calculations.
(§8) Percent inhibition values are then calculated for each animal using the means of the vehicle and 10 mpk prednisone control groups. The individual mouse percent inhibition values are then fit to a four-parameter logistic model using the area under curve mean for each group. Since all four parameters are estimated and the lower plateau is not fixed at 0% and the upper plateau was not fixed at 100%, the ED50 and ED80 values are calculated by using an inverse calibration formula for a response equal to 50% or 80%. The designation “nd” means not determined.

[5] = system: LPS-induced TNFα; assay: 28-day mouse side-effect model, LPS-induced serum TNFα suppression; assay type: in vivo; conditions: oral gavage 28 days, LPS challenge
Procedure: as §5, §6, §7, §8

[6] = system: osteocalcin; assay: 28-day mouse side-effect model, serum osteocalcin suppression; assay type: in vivo; conditions: oral gavage 28 days
Procedure: as §5, §6, §7, §8

[7] = Homo sapiens, 0.457247 nM, mean of donors
[8] = ex vivo LPS-stimulated human whole blood, extent of inhibition, concentration not given
[9] = Homo sapiens, 3000 nM, mean of donors

Row | SMILES | inhibition at 0.00137174 µM ([1]; Homo sapiens, mean of donors) [%] | inhibition at 0.00411523 µM ([1]; Homo sapiens, mean of donors) [%] | inhibition at 0.0123457 µM ([1]; Homo sapiens, mean of donors) [%] | inhibition at 0.037037 µM ([1]; Homo sapiens, mean of donors) [%] | inhibition at 0.111111 µM ([1]; Homo sapiens, mean of donors) [%] | inhibition at 0.333333 µM ([1]; Homo sapiens, mean of donors) [%] | inhibition at 1 µM ([1]; Homo sapiens, mean of donors) [%] | inhibition at 0.00137174 µM ([2]; Homo sapiens, mean of donors) [%] | inhibition at 0.00411523 µM ([2]; Homo sapiens, mean of donors) [%] | inhibition at 0.0123457 µM ([2]; Homo sapiens, mean of donors) [%] | inhibition at 0.037037 µM ([2]; Homo sapiens, mean of donors) [%] | inhibition at 0.111111 µM ([2]; Homo sapiens, mean of donors) [%] | inhibition at 0.333333 µM ([2]; Homo sapiens, mean of donors) [%] | inhibition at 1 µM ([2]; Homo sapiens, mean of donors) [%] | inhibition at 0.00137174 µM ([3]; Homo sapiens, mean of donors) [%] | inhibition at 0.00411523 µM ([3]; Homo sapiens, mean of donors) [%] | inhibition at 0.0123457 µM ([3]; Homo sapiens, mean of donors) [%] | inhibition at 0.037037 µM ([3]; Homo sapiens, mean of donors) [%] | inhibition at 0.111111 µM ([3]; Homo sapiens, mean of donors) [%] | inhibition at 0.333333 µM ([3]; Homo sapiens, mean of donors) [%] | further results
1 | C[C@]12C=CC(=O)C=C1CC[C@@H]1[C@@H]2[C@@H](O)C[C@@]2(C)[C@H]1CC[C@]2(O)C(=O)CO [Prednisolone] | 9.75 | 25.2 | 34.7 | 70.7 | 85.2 | 94.8 | 96.4 | -1.26 | 0.84 | 7.17 | 36.7 | 61.9 | 87.6 | 91.8 | 6.36 | 8.95 | 19.6 | 49.2 | 67.1 | 86.9 | inhibition at 0.000457247 µM [1, 7]: 1.19%; level of inhibition of IFN [1, 8]: full inhibition; inhibition at 0.000457247 µM [2, 7]: -0.571%; level of inhibition of IL-1 [2, 8]: full inhibition; inhibition at 0.000457247 µM [3, 7]: 2.76%; inhibition at 1 µM ([3]; Homo sapiens, mean of donors): 90.4%; level of inhibition of TNF [3, 8]: full inhibition
2 | Cc1nc(Br)ccc1NC(=O)c1ccc2c(c1)CC[C@@H]1C[C@@](O)(c3ccccc3)[C@](C)(O)C[C@@]21Cc1ccccc1 [Comparator B, (4bR,6R,7R,8aR)-4b-benzyl-N-(6-bromo-2-methylpyridin-3-yl)-6,7-dihydroxy-6-methyl-7-phenyl-4b,5,6,7,8,8a,9,10-octahydrophenanthrene-2-carboxamide] | – | – | – | – | – | – | – | – | – | – | – | – | – | – | – | – | – | – | – | – | ED50 at 28 days ([4]; female, Swiss Webster, read-out: Insulin (ED50 dose)): 1.04 mg/kg; Insulin (ED80 dose) [4]: 7.58; ED50 ([5]; 672 h, read-out: TNFα Suppression (ED50 dose)): 0.083 mg/kg; TNFα Suppression (ED80 dose) [5]: 0.45; ED50 at 28 days ([6]; female, Swiss Webster, read-out: Osteocalcin Suppression (ED50 dose)): 0.21 mg/kg; Osteocalcin Suppression (ED80 dose) [6]: 0.97
3 | Cc1ncccc1COc1ccc2c(c1)CC[C@@H]1C[C@@](O)(c3ccccc3)[C@@H](O)C[C@@]21Cc1ccccc1 [Comparator G, (2R,3S,4aR,10aR)-4a-Benzyl-7(2-methyulpyridin-3-ylmethoxy)-2-phenyl-1,2,3,4,4a,9,10,10a-octahydrophenanthrene-2,3 diol] | 16.7 | 12.8 | -9.15 | -2.58 | 2.66 | 2.02 | 13.2 | -0.115 | -2.64 | -7.52 | -7.35 | -5.37 | -6.75 | -1.19 | 3.22 | -2.9 | -14 | -13.9 | -8.76 | -13.8 | IFNγ (% inhibition) ([1]; 3000 nM, mean of donors, 3 µM): 41.3796%; inhibition at 3 µM [1, 9]: 41%; inhibition at 3 µM [2, 9]: < 20%; inhibition at 1 µM ([3]; Homo sapiens, mean of donors): -8.47%; inhibition at 3 µM [3, 9]: < 20%
